Measurements: patent US6462016B1 (Shiseido Company, Ltd., priority 1995, dated 2002)
pKd: −log10 of the molar value.

Legend:
[1] = biological target: maxadilan receptor in crude membrane fraction from the rabbit spleen; assay: Binding test (tissue): 125I-Max, rabbit spleen crude membrane fraction; details: read-out: dissociation constant (Kd)
Experimental: (§1) Likewise, crude membrane fractions were prepared, respectively, from the brain, liver, pancreas, spleen, aorta and kidney of a rabbit, and the brains of a rat, a mouse, cattle and a human being.
(§2) After completion of the reaction, ^125I-Max bound to the membrane was separated by subjecting the resultant incubation matter to suction filtration using a GF/C glass filter (Whatman GF/C), and the radioactivity of the glass filter after being dried was measured by a γ-counter.

[2] = biological target: T1, maxadilan receptor in crude membrane fraction from the rat brain (Rattus norvegicus, UniProt P32215); assay: Binding test (tissue): 125I-Max, rat brain crude membrane fraction
T1 construct: Likewise, crude membrane fractions were prepared; from tissue; host or cells: rat brain, crude membrane fraction
T1 sequence (P32215 20-523): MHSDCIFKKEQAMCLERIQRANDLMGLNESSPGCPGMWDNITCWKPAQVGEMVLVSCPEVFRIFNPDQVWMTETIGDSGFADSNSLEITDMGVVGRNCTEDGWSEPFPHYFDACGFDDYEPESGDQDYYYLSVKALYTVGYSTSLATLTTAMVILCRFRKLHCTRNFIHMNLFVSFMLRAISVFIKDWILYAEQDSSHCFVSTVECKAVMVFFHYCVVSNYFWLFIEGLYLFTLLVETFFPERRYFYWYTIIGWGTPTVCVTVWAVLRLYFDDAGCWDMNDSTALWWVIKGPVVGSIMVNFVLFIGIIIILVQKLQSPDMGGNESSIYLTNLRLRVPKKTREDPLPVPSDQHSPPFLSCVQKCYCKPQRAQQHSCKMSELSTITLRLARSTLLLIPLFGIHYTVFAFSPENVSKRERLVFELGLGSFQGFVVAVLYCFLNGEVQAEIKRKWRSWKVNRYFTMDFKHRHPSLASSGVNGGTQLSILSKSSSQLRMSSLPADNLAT
Experimental: as §1, §2

[3] = biological target: T2, maxadilan receptor in crude membrane fraction from the mouse brain (Mus musculus, UniProt P70205); assay: Binding test (tissue): 125I-Max, mouse brain crude membrane fraction
T2 construct: Likewise, crude membrane fractions were prepared; from tissue; host or cells: mouse brain, crude membrane fraction
T2 sequence (P70205 21-496): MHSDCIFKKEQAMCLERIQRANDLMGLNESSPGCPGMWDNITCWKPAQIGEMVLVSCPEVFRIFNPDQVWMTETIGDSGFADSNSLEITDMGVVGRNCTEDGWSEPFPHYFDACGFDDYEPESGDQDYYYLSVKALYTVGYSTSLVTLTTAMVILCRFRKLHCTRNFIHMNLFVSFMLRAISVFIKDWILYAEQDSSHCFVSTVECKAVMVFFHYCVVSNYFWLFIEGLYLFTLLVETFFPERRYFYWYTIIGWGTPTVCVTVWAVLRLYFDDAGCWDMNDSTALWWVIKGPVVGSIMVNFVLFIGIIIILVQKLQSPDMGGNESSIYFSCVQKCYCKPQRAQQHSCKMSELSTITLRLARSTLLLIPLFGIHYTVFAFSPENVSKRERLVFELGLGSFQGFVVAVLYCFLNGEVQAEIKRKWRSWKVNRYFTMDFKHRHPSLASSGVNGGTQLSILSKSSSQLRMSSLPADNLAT
Experimental: as §1, §2

[4] = biological target: T3, maxadilan receptor in crude membrane fraction from the cattle brain (Bos taurus, UniProt Q29627); assay: Binding test (tissue): 125I-Max, cattle brain crude membrane fraction
T3 construct: Likewise, crude membrane fractions were prepared; from tissue; host or cells: cattle brain, crude membrane fraction
T3 sequence (Q29627 38-513): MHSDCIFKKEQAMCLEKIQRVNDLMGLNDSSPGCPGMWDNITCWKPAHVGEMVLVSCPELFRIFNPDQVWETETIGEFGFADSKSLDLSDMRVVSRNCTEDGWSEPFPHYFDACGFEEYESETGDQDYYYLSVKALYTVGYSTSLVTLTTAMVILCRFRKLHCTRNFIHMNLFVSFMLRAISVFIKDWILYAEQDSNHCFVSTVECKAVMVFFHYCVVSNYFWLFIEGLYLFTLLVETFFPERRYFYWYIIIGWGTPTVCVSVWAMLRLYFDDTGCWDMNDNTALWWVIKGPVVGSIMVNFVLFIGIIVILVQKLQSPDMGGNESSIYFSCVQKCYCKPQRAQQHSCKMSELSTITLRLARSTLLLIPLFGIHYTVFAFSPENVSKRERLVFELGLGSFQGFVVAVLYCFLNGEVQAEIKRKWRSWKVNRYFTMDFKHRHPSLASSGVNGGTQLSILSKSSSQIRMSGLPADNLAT
Experimental: as §1, §2

[5] = biological target: T4, maxadilan receptor in crude membrane fraction from the brain of a human being (Homo sapiens, UniProt P41586); assay: Binding test (tissue): 125I-Max, human brain crude membrane fraction
T4 construct: Likewise, crude membrane fractions were prepared; from tissue; host or cells: human brain, crude membrane fraction
T4 sequence (P41586 21-468): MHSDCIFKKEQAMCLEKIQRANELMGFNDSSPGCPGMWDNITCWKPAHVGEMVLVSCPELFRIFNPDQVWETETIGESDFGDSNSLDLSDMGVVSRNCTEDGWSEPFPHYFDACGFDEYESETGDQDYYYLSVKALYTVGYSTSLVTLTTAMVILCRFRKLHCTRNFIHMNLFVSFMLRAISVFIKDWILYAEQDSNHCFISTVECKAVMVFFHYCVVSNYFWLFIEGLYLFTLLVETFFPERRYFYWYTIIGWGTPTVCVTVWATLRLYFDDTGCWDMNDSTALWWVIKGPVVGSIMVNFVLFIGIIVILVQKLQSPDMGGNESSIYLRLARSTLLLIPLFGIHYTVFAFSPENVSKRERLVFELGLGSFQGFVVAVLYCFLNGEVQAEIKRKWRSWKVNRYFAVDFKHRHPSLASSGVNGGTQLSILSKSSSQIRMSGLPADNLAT
Experimental: as §1, §2

[6] = system: rat adrenal medulla melanocytoma PC-12; format: cell-based
[7] = system: NBf1 cell; assay: cAMP production in NBf1 cell; format: cell-based, human
[8] = system: rat pancreas smooth muscle MILE cell; assay: cAMP production in MILE cell; format: cell-based
[9] = system: rabbit skin; format: in vivo

For maxadilan, the pKd [1] was 10.26, the “maximum binding amount (Bmax)” value [2] was 68 fmol/mg and the “maximum binding amount (Bmax)” value [3] was 53 fmol/mg. The “maximum binding amount (Bmax)” value [4] was 17 fmol/mg, the “specific binding to crude membrane fraction” value [4] was “specific binding of Max is also recognized” and the “specific binding to crude membrane fraction” value [5] was “specific binding of Max is also recognized”. The cAMP production ([6]; PC-12 cell (1×10^6), 37° C. 10 minutes) was “significantly promotes cAMP production”, the “time course of cAMP production after stimulation” value ([6]; PC-12 cell, 100 nM maxadilan, 37° C., various time) was “conducted in an instant” and the cAMP production [7] was “likewise observed”. The cAMP production [8] was “likewise observed”, the Erythema formation activity ([9]; 50 μl dilutions at various concentrations intracutaneously into white rabbits, observed 30 minutes and 2 hours after injection) was 10^−12 and the “erythema formation action (in words)” value ([9]; intracutaneous injection, rabbit) was “superior to that of natural maxadilan”.
